Experimental data published in PubChem BioAssay AID1918957 (Molecular Pharmacology Branch, DTP, NCI, 2023).

Test system: NCI-H1876 complex spheroid viability
Experiment: Anticancer human tumor NCI-H1876 cell line growth inhibition [LSD1];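 further: spheroids exposed to compounds for one week before readout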;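 on viability, T/C: 100% = DMSO vehicle-treated spheroids so lower means fewer viable cells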
Conditions: for IC50: curve of first compound; for viability, T/C: stronger effect = lower value
From the text: Multicellular complex tumor spheroid response to LSD1 Inhibitor Iadademstat in combination with a variety of drugs and investigational agents in selected tumor cell lines
The current study was undertaken to assess response to LSD1 inhibitors in combination with standard-of-care drugs and investigational agents in solid tumor complex spheroid models as well as in the K-562 leukemia. Complex spheroids include a stromal component modeled by human endothelial cells (HUVEC) and fibroblasts modeled by human mesenchymal stem cells (MSCs). The concentration ranges selected for each drug and investigational agent were based upon clinically achievable concentrations if the clinical Cmax of the agent was known.
Compounds. The drugs and investigational agents used in this study are listed on Table 1. All of the agents used, including staurosporine (NSC755774) and gemcitabine (NSC613327), were obtained from the Developmental Therapeutics Program, NCI. FDA-approved anticancer drugs are available from the NCI at http://dtp.nci.nih.gov/branches/dscb/oncology_drugset_explanation.html. Drugs and investigational agents were >95% pure by proton nuclear magnetic resonance (NMR) and liquid chromatography/mass spectrometry (LC/MS). Stock solutions were prepared at 400x in DMSO, stored at -70 degrees C, and diluted in fresh medium prior to their use. The final concentration of DMSO in cell culture wells never exceeded 0.25% (v/v). The FDA-approved anticancer drug set is available from the Developmental Therapeutics Program at https://dtp.cancer.gov/organization/dscb/obtaining/available_plates.htm. All drugs and investigational agents were tested over a range starting from a high concentration at or near the clinical Cmax and decreasing in half-log increments. If the clinical Cmax for an agent had not been determined, the highest concentration tested was 10 microM.
Cell Lines. The patient-derived cancer cell (PDC) lines: 292921-168-R-J2-PDC, K24384-001-R-PDC, and 521955-158-R2-J5-PDC pancreatic carcinomas, 556581-035-R-J1 ovarian carcinoma, 324938-238-R-J1-PDC, 855422-203-R-J1-PDC and 883617-216-R-J1-PDC urothelial bladder carcinomas, 743489-274-T-PDC renal cell carcinoma, 138582-R-J1 Merkel cell tumor, K60290-347-R-J1 and K57222-313-R-J1-PDC glioblastomas, 653999-131-R-J2-PDC, LG0703-F948-PDC, and 349418-098-R-PDC non-small cell lung carcinomas, 885512-296-R-J2-PDC, 171881-019-R-J1-PDC breast carcinomas and 186277-243-T-J2-PDC and 233499-124-R-J2-PDC colon carcinomas were obtained from the NCI Patient-Derived Models Repository (PDMR, https://pdmr.cancer.gov). The established cell lines NCI/ADR-RES (RRID:CVCL_14520 and OVCAR-5 (RRID:CVCL_1628) ovarian carcinomas, 786-O (RRID:CVCL_1051) and A498 (RRID:CVCL_A498) renal cell carcinoma, NCI-H211 (ATCC, cat. CRL-5824; RRID:CVCL_1529), NCI-H196 (ATCC, cat. CRL-5823, RRID:CVCL_1509), SW 1271 (ATCC, cat. CRL-2177, RRID:CVCL_1716) and NCI-H1876 (ATCC, cat. CRL-5902, RRID:CVCL_1503) small cell lung carcinomas, MDA-MB-231 (RRID:CVCL_0062) and MDA-MB-468 (RRID:CVCL_0419)breast carcinomas (10-12). Pooled donor human umbilical vein endothelial cells (HUVEC, Lonza, cat. CC-2519) and human mesenchymal stem cells (hMSC, Lonza, cat. PT-2501) were purchased from Lonza (Walkersville, MD).
Cell Culture. All cells were maintained in an incubator at 37 degrees C and 5% CO2 with 95% humidity. The PDC lines were cultured according to standard operating procedures established by the NCI PDMR (https://pdmr.cancer.gov). Briefly all PDCs were thawed and cultured in Matrigel-coated flasks prepared with a working solution of 1X Ham's F-12 nutrient mix, without supplementation (Invitrogen, Waltham, MA, cat. 11765054), 100 U/mL penicillin-streptomycin (Invitrogen, cat. 15140122), and 2.5% Matrigel (Corning Inc., Corning, NY, cat. 354248) for the first three passages. […]

## COc1cc(C2c3cc4c(cc3C(OC3OC5COC(C)OC5C(O)C3O)C3COC(=O)C23)OCO4)cc(OC)c1O (stereo not given) + NC1CC1c1ccc(-c2cccc(O)c2)cc1
Second compound 0.1 µM
  IC50: 36.6 nM
Second compound 0.316 µM
  IC50: 34.6 nM
Second compound 1 µM
  IC50: 35.2 nM
Second compound 3.16 µM
  IC50: 40.4 nM
Second compound 10 µM
  IC50: 35.3 nM
Second compound 0.1 µM, first compound 0.00949 µM
  viability, T/C: 87.6%
Second compound 0.1 µM, first compound 0.03 µM
  viability, T/C: 56.3%
Second compound 0.1 µM, first compound 0.0949 µM
  viability, T/C: 20.1%
Second compound 0.1 µM, first compound 0.3 µM
  viability, T/C: 11.4%
Second compound 0.1 µM, first compound 0.949 µM
  viability, T/C: 8.84%
Second compound 0.1 µM, first compound 3 µM
  viability, T/C: 10.2%
Second compound 0.316 µM, first compound 0.00949 µM
  viability, T/C: 84.4%
Second compound 0.316 µM, first compound 0.03 µM
  viability, T/C: 54.4%
Second compound 0.316 µM, first compound 0.0949 µM
  viability, T/C: 18.6%
Second compound 0.316 µM, first compound 0.3 µM
  viability, T/C: 10.9%
Second compound 0.316 µM, first compound 0.949 µM
  viability, T/C: 9.79%
Second compound 0.316 µM, first compound 3 µM
  viability, T/C: 8.38%
Second compound 1 µM, first compound 0.00949 µM
  viability, T/C: 92%
Second compound 1 µM, first compound 0.03 µM
  viability, T/C: 55.2%
Second compound 1 µM, first compound 0.0949 µM
  viability, T/C: 18%
Second compound 1 µM, first compound 0.3 µM
  viability, T/C: 11.6%
Second compound 1 µM, first compound 0.949 µM
  viability, T/C: 9.23%
Second compound 1 µM, first compound 3 µM
  viability, T/C: 8.55%
Second compound 3.16 µM, first compound 0.00949 µM
  viability, T/C: 93.9%
Second compound 3.16 µM, first compound 0.03 µM
  viability, T/C: 60.5%
Second compound 3.16 µM, first compound 0.0949 µM
  viability, T/C: 19.9%
Second compound 3.16 µM, first compound 0.3 µM
  viability, T/C: 13%
Second compound 3.16 µM, first compound 0.949 µM
  viability, T/C: 9%
Second compound 3.16 µM, first compound 3 µM
  viability, T/C: 8.78%
Second compound 10 µM, first compound 0.00949 µM
  viability, T/C: 85.3%
Second compound 10 µM, first compound 0.03 µM
  viability, T/C: 54.9%
Second compound 10 µM, first compound 0.0949 µM
  viability, T/C: 20.7%
Second compound 10 µM, first compound 0.3 µM
  viability, T/C: 13.8%
Second compound 10 µM, first compound 0.949 µM
  viability, T/C: 11%
Second compound 10 µM, first compound 3 µM
  viability, T/C: 9.82%
